The text below walks through data of patent publication US20140315889A1, “HYDROXAMATE DERIVATIVES FOR HDAC INHIBITOR, AND THE PHARMACEUTICAL COMPOSITION COMPRISING THEREOF” (CHONG KUN DANG PHARMACEUTICAL CORP., priority 2011, published 2014).

Read-outs that look alike come from different tables or passages of the source.

Common to all, as to assay type: biochemical
Assay [1] has as its target T1, Human recombinant HDAC1 (Homo sapiens, UniProt Q13547).
T1 construct: purchased Enzo Life Science Co. (named for the kit; assigned to the enzyme from the BML- catalogue prefix) BML-SE456
The assay can be described thus: HDAC enzyme activity test, HDAC1. On the procedure:
(§1) Then, 0.3 μg of enzyme and 10 μM of substrate per well were added, reacted at 30° C. for 60 minutes. Thereto, Fluor de Lys® Developer II (BML-KI176) was added and reacted for 30 minutes. […] From the data, the respective IC50 were calculated by GraphPad Prism 4.0 program.

Assay [2] addresses T2, human recombinant HDAC6 (Homo sapiens, UniProt Q9UBN7).
T2 construct: purchased Calibiochem Co. (so in the source) 382180
T2 sequence (Q9UBN7 1-1215): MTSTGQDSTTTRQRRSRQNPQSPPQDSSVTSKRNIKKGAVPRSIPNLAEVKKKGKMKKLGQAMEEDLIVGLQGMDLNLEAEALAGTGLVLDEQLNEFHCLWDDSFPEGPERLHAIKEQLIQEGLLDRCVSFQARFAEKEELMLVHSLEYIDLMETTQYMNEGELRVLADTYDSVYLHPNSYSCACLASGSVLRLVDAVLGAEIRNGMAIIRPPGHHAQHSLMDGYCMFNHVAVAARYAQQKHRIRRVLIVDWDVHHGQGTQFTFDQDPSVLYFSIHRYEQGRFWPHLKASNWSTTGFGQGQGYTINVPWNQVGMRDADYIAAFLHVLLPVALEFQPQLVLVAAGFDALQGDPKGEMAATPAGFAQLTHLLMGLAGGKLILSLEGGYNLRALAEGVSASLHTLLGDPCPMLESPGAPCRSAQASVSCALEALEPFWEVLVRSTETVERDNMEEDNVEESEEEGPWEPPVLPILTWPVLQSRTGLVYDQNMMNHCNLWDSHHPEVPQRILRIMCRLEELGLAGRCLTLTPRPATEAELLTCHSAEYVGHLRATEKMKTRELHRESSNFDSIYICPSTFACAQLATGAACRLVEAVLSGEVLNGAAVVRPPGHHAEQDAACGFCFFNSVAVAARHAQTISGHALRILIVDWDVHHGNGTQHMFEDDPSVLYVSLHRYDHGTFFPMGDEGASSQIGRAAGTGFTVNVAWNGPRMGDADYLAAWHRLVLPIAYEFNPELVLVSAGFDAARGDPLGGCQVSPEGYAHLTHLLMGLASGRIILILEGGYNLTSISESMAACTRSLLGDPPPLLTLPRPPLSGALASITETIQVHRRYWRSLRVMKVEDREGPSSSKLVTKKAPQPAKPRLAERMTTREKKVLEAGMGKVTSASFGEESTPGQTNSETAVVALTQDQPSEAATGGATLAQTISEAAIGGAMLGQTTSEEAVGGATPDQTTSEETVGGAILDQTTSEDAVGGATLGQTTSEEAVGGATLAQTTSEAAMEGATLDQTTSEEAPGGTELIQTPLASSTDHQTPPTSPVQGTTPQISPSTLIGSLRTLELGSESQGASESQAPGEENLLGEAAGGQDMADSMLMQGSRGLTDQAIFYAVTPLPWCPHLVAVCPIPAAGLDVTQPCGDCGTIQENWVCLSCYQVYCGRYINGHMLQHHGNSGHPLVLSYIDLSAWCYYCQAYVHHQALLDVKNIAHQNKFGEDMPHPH
The assay can be described thus: HDAC enzyme activity test, HDAC6. The following applies: for Selectivity for HDAC6, HD1/HD6: ratio HDAC1 IC50 / HDAC6 IC50. On the procedure:
as §1

In assay [3] the target is T3, HDAC8 (Homo sapiens, UniProt Q9BY41).
T3 sequence (Q9BY41 1-377): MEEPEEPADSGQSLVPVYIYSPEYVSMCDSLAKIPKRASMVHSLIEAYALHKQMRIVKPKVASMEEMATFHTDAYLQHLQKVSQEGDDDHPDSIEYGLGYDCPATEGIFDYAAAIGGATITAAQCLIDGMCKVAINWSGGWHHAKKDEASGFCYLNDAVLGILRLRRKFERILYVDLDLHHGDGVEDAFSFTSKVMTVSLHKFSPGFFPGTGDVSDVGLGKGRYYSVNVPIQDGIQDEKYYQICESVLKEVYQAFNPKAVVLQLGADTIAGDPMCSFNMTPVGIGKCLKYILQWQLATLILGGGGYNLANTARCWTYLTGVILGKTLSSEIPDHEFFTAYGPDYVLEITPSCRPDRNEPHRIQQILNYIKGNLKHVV
Nature of the assay: HDAC enzyme activity test, HDAC8. The following applies: Table 11, eleven HDAC isozymes; read-out: Inhibition ability (IC50) against HDAC8. On the procedure: as §1

Assay [4] has as its target HDAC9 (Homo sapiens, UniProt Q9UKV0). Nature of the assay: HDAC enzyme activity test, HDAC9. The following applies: Table 11, eleven HDAC isozymes; read-out: Inhibition ability (IC50) against HDAC9. The method, then:
as §1

Assay [5] deals with T4, HDAC11 (Homo sapiens, UniProt Q96DB2).
T4 sequence (Q96DB2 1-347): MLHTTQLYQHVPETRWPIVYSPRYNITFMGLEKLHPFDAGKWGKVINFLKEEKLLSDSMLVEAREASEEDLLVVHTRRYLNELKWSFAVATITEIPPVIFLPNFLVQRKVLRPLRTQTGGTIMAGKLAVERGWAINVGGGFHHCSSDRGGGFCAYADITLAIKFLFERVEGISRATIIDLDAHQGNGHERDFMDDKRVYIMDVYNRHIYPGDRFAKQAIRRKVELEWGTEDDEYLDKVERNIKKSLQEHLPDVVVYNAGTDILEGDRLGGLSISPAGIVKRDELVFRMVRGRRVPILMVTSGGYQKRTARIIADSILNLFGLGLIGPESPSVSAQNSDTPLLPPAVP
The assay can be described thus: HDAC enzyme activity test, HDAC11. The following applies: Table 11, eleven HDAC isozymes; read-out: Inhibition ability (IC50) against HDAC11. The method, then:
as §1

[6] abbreviates: Table 12, read-out: Inhibition ability (IC50) HDAC1.
[7] abbreviates: Table 11, eleven HDAC isozymes, read-out: Inhibition ability (IC50) against HDAC6.
The mark [8] stands for this setting: Table 12, read-out: Inhibition ability (IC50) HDAC6.

T1 sequence (Q13547 whole entry): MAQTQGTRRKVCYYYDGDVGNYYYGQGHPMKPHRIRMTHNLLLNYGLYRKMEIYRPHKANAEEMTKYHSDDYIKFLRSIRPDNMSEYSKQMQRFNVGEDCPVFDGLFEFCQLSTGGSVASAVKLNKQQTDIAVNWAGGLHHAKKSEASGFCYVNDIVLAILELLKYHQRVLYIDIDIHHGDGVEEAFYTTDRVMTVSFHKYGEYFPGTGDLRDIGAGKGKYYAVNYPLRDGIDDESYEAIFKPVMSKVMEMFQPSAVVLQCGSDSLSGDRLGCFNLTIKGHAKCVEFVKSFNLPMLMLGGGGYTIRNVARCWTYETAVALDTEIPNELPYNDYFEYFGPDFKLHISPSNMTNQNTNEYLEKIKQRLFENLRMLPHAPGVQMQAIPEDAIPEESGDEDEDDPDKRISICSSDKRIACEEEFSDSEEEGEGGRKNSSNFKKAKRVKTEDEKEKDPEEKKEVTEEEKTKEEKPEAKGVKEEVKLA
Chain of HDAC9 (Q9UKV0 whole entry, species assumed): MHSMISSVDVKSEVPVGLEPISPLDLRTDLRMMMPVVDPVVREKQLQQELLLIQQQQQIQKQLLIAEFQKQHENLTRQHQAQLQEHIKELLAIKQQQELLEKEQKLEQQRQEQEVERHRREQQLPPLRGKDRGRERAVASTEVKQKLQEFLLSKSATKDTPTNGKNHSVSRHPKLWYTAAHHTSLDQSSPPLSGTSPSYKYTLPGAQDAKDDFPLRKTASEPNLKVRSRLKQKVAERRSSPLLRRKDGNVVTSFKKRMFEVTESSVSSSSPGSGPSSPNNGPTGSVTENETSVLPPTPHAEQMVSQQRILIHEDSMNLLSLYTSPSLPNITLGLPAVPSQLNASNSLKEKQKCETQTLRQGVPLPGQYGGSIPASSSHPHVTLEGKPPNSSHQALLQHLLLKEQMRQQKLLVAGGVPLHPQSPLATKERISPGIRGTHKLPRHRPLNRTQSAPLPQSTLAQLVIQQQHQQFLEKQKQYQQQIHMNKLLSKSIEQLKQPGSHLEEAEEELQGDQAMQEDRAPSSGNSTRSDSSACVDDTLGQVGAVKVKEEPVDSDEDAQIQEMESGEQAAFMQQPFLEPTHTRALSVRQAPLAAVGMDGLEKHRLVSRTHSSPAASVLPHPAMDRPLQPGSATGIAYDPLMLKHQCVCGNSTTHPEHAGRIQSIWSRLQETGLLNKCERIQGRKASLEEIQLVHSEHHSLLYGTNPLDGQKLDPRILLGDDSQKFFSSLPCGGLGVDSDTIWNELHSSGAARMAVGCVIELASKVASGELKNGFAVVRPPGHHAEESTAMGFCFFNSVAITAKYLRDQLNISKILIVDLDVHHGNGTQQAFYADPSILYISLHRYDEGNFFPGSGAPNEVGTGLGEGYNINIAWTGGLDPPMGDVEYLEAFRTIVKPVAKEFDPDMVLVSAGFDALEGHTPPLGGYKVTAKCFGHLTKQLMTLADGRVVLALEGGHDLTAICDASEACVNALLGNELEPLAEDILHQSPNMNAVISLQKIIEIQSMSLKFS

What is called IC50 is the concentration needed to halve the response being measured. Turning to `CC1(C)CC(=O)c2c(n(Cc3ccc(C(=O)NO)cc3)c3ccccc23)C1` [Compound 19, 4-((2,2-dimethyl-4-oxo-1,2,3,4-tetrahydrocarbazol-9-yl)methyl)-N-hydroxybenzamide], the IC50 worked out at 18.1 µM in assay [1] (Table 11, eleven HDAC isozymes, read-out: Inhibition ability (IC50) against HDAC1); 4.22 µM in assay [1] (setting [6]); 0.0353 µM in assay [2] (setting [7]); 0.0209 µM in assay [2] (setting [8]); 0.794 µM in assay [3]; 30.4 µM in assay [4]. Further, the IC50 in assay [5] came out at 22.2 µM. For the same molecule, the “Selectivity for HDAC6, HD1/HD6” value in assay [2] (Table 12) is on record as 201.8.
For the molecule `CC1(C)CC(=O)c2c(n(CCCCCC(=O)NO)c3ccc(F)cc23)C1` [Compound 55, 6-(6-fluoro-2,2-dimethyl-4-oxo-1,2,3,4-tetrahydrocarbazol-9-yl)-N-hydroxyhexanamide], the IC50 in assay [1] (setting [6]) was found to be 4.08 µM; in assay [2] (setting [7]) it was 0.228 µM; in assay [2] (setting [8]), 0.0564 µM; in assay [3], 0.507 µM. Moreover, the “Selectivity for HDAC6, HD1/HD6” value in assay [2] (Table 12) worked out at 72.5.
For `CCCCN1CCN(CC2CCc3c(c4cc(F)ccc4n3CCCCCC(=O)NO)C2=O)CC1` (stereo not shown) [Compound 326, 6-(3-((4-butylpiperazin-1-yl)methyl)-6-fluoro-4-oxo-1,2,3,4-tetrahydrocarbazol-9-yl)-N-hydroxyhexanamide], the IC50 came out at 10.1 µM in assay [1] (setting [6]) and 0.0976 µM in assay [2] (setting [8]). The “Selectivity for HDAC6, HD1/HD6” value in assay [2] (Table 12) was 103.3.
Turning to `Cc1c2c(n(CCCCCCC(=O)NO)c1C)CCCC2=O` [Compound 328, 7-(2,3-dimethyl-4-oxo-4,5,6,7-tetrahydro-1H-indol-1-yl)-N-hydroxyheptanamide], the IC50 in assay [1] (setting [6]) stood at 3.21 µM; in assay [2] (setting [8]), 0.0221 µM. Also, the “Selectivity for HDAC6, HD1/HD6” value in assay [2] (Table 12) is 145.1.
Turning to `O=C(CCCCCCn1c2c(c3cc(F)ccc31)C(=O)C(CN1CCOCC1)CC2)NO` (stereo not shown) [Compound 344, 7-(6-fluoro-3-(morpholinomethyl)-4-oxo-1,2,3,4-tetrahydrocarbazol-9-yl)-N-hydroxyheptanamide], the IC50 in assay [1] (setting [6]) turned out to be 0.102 µM; in assay [2] (setting [8]) it was 0.0162 µM. The “Selectivity for HDAC6, HD1/HD6” value in assay [2] (Table 12) was 6.3.
Taken in the same sequence, the figures for `Cc1cc2c(n1CCCCCC(=O)NO)CC(C)(C)CC2=O` [Compound 345, N-hydroxy-6-(2,6,6-trimethyl-4-oxo-4,5,6,7-tetrahydroindol-1-yl)hexanamide] were 0.402 µM, 0.0281 µM and 14.3.
On to `Cc1cc2c(n1CCCCCCC(=O)NO)CCCC2=O` [Compound 346, N-hydroxy-7-(2-methyl-4-oxo-4,5,6,7-tetrahydroindol-1-yl)heptanamide], for which the IC50 in assay [1] (setting [6]) was 0.255 µM; in assay [2] (setting [8]), 0.025 µM. In addition, in assay [2] (Table 12), the “Selectivity for HDAC6, HD1/HD6” value is reported as 10.2.
As for `Cc1cc2c(n1CCCCCCC(=O)NO)CC(C)(C)CC2=O` [Compound 347, N-hydroxy-7-(2,6,6-trimethyl-4-oxo-4,5,6,7-tetrahydroindol-1-yl)heptanamide], the IC50 in assay [1] (setting [6]) stood at 0.453 µM; in assay [2] (setting [8]), 0.027 µM. Also, the “Selectivity for HDAC6, HD1/HD6” value in assay [2] (Table 12) stood at 16.8.
Taken in the same sequence, the figures for `Cc1c2c(n(CCCCCC(=O)NO)c1C)CC(C)(C)CC2=O` [Compound 350, N-hydroxy-6-(2,3,6,6-tetramethyl-4-oxo-4,5,6,7-tetrahydro-1H-indol-1-yl)hexanamide] were 1 µM, 0.102 µM and 9.8.
